Calls of active or inactive are those of the source. The rule behind the calls is not given here.
What was measured:
[1] = biological target: Dipeptidyl peptidase 4 (Homo sapiens, UniProt P27487); assay: Inhibition of DPP4 (unknown origin) assessed as hydrolysis rate using Gly-pro-p-nitroanilide as substrate measured after 20 mins incubation by fluorometric assay
[2] = test system: Rattus norvegicus; assay: Anti-diabetic activity in normal Wistar rat model assessed as blood glucose level at 10 mg/kg, po followed by treated administered 3 mg/kg orally measured after 30 mins by Oral glucose tolerance test (reference value: […] 176.14 + /- 4.04 mg/dL); format: functional; conditions: 0.5 h
[3] = test system: Rattus norvegicus; assay: Anti-diabetic activity in normal Wistar rat model assessed as blood glucose level at 10 mg/kg, po followed by treated administered 3 mg/kg orally measured after 60 mins by Oral glucose tolerance test (reference value: 153.74 + /- 3.94 mg/dL); format: functional; conditions: 1 h
[4] = test system: Rattus norvegicus; assay: Anti-diabetic activity in normal Wistar rat model assessed as blood glucose level at 10 mg/kg, po followed by treated administered 3 mg/kg orally measured after 90 mins by Oral glucose tolerance test (reference value: 134.11 + /- 4.64 mg/dL); format: functional; conditions: 1.5 h
[5] = test system: Rattus norvegicus; assay: Anti-diabetic activity in normal Wistar rat model assessed as blood glucose level at 10 mg/kg, po followed by treated administered 3 mg/kg orally measured after 120 mins by Oral glucose tolerance test (reference value: 126.5 + /- 3.90 mg/dL); format: functional; conditions: 2 h
[6] = test system: Rattus norvegicus; assay: Anti-diabetic activity in normal Wistar rat model assessed as blood glucose level at 20 mg/kg, po followed by treated administered 3 mg/kg orally measured after 30 mins by Oral glucose tolerance test (reference value: 176.14 + /- 4.04 mg/dL); format: functional; conditions: 0.5 h
[7] = test system: Rattus norvegicus; assay: Anti-diabetic activity in normal Wistar rat model assessed as blood glucose level at 20 mg/kg, po followed by treated administered 3 mg/kg orally measured after 60 mins by Oral glucose tolerance test (reference value: 153.74 + /- 3.94 mg/dL); format: functional; conditions: 1 h
[8] = test system: Rattus norvegicus; assay: Anti-diabetic activity in normal Wistar rat model assessed as blood glucose level at 20 mg/kg, po followed by treated administered 3 mg/kg orally measured after 90 mins by Oral glucose tolerance test (reference value: 134.11 + /- 4.64 mg/dL); format: functional; conditions: 1.5 h
[9] = test system: Rattus norvegicus; assay: Anti-diabetic activity in normal Wistar rat model assessed as blood glucose level at 20 mg/kg, po followed by treated administered 3 mg/kg orally measured after 120 mins by Oral glucose tolerance test (reference value: 126.5 + /- 3.90 mg/dL); format: functional; conditions: 2 h
[10] = test system: Rattus norvegicus; assay: Anti-diabetic activity in normal Wistar rat model assessed as blood glucose level at 10 mg/kg, po followed by treated administered 3 mg/kg orally measured immediately after administration by Oral glucose tolerance test (reference value: 105.12 mg/dL); format: functional
[11] = test system: Rattus norvegicus; assay: Anti-diabetic activity in normal Wistar rat model assessed as blood glucose level at 20 mg/kg, po followed by treated administered 3 mg/kg orally measured immediately after administration by Oral glucose tolerance test (reference value: 105.12 mg/dL); format: functional
[12] = test system: Rattus norvegicus; assay: Antihyperlipidemic effect in STZ-induced type 2 diabetes male Wistar albino rat model assessed as total cholesterol level at 10 mg/kg, po measured after 4 weeks (reference value: 227.04 +/- 4.10 mg/dL); format: functional
[13] = test system: Rattus norvegicus; assay: Antihyperlipidemic effect in STZ-induced type 2 diabetes male Wistar albino rat model assessed as HDL level at 10 mg/kg, po measured after 4 weeks (reference value: 25.54 +/- 2.62 mg/dL); format: functional
[14] = test system: Rattus norvegicus; assay: Antihyperlipidemic effect in STZ-induced type 2 diabetes male Wistar albino rat model assessed as LDL level at 10 mg/kg, po measured after 4 weeks (reference value: 184.65 +/- 4.57 mg/dL); format: functional
[15] = test system: Rattus norvegicus; assay: Antihyperlipidemic effect in STZ-induced type 2 diabetes male Wistar albino rat model assessed as triglyceride level at 10 mg/kg, po measured after 4 weeks (reference value: 190.23 +/- 4.37 mg/dL); format: functional
[16] = test system: Rattus norvegicus; assay: Antihyperlipidemic effect in STZ-induced type 2 diabetes male Wistar albino rat model assessed as total cholesterol level at 20 mg/kg, po measured after 4 weeks (reference value: 227.04 +/- 4.10 mg/dL); format: functional
[17] = test system: Rattus norvegicus; assay: Antihyperlipidemic effect in STZ-induced type 2 diabetes male Wistar albino rat model assessed as HDL level at 20 mg/kg, po measured after 4 weeks (reference value: 25.54 +/- 2.62 mg/dL); format: functional
[18] = test system: Rattus norvegicus; assay: Antihyperlipidemic effect in STZ-induced type 2 diabetes male Wistar albino rat model assessed as LDL level at 20 mg/kg, po measured after 4 weeks (reference value: 184.65 +/- 4.57 mg/dL); format: functional
[19] = test system: Rattus norvegicus; assay: Antihyperlipidemic effect in STZ-induced type 2 diabetes male Wistar albino rat model assessed as triglyceride level at 20 mg/kg, po measured after 4 weeks (reference value: 190.23 +/- 4.37 mg/dL); format: functional
[20] = test system: Rattus norvegicus; assay: Reduction of alkaline phosphatase (ALP) level in STZ-induced type 2 diabetes male Wistar albino rat model at 10 mg/kg, po measured after 4 weeks by hepatic function test; format: functional, organism-based
[21] = test system: Rattus norvegicus; assay: Reduction of serum glutamate pyruvate transaminase (SGPT) level in STZ-induced type 2 diabetes male Wistar albino rat model at 10 mg/kg, po measured after 4 weeks by hepatic function test; format: functional, organism-based
[22] = test system: Rattus norvegicus; assay: Reduction of serum glutamate oxaloacetate transaminase (SGOT) level in STZ-induced type 2 diabetes male Wistar albino rat model at 10 mg/kg, po measured after 4 weeks by hepatic function test; format: functional, organism-based
[23] = test system: Rattus norvegicus; assay: Reduction of serum creatinine level in STZ-induced type 2 diabetes male Wistar albino rat model at 10 mg/kg, po measured after 4 weeks by hepatic function test; format: functional, organism-based
[24] = test system: Rattus norvegicus; assay: Reduction of alkaline phosphatase (ALP) level in STZ-induced type 2 diabetes male Wistar albino rat model at 20 mg/kg, po measured after 4 weeks by hepatic function test; format: functional, organism-based
[25] = test system: Rattus norvegicus; assay: Reduction of serum glutamate pyruvate transaminase (SGPT) level in STZ-induced type 2 diabetes male Wistar albino rat model at 20 mg/kg, po measured after 4 weeks by hepatic function test; format: functional, organism-based
[26] = test system: Rattus norvegicus; assay: Reduction of serum glutamate oxaloacetate transaminase (SGOT) level in STZ-induced type 2 diabetes male Wistar albino rat model at 20 mg/kg, po measured after 4 weeks by hepatic function test; format: functional, organism-based
[27] = test system: Rattus norvegicus; assay: Reduction of serum creatinine level in STZ-induced type 2 diabetes male Wistar albino rat model at 20 mg/kg, po measured after 4 weeks by hepatic function test; format: functional, organism-based
[28] = test system: Rattus norvegicus; assay: Antihyperlipidemic effect in STZ-induced type 2 diabetes male Wistar albino rat model assessed as total cholesterol level at 0.5 mg/kg, po measured after 4 weeks (reference value: 227.04 +/- 4.10 mg/dL); format: functional
[29] = test system: Rattus norvegicus; assay: Antihyperlipidemic effect in STZ-induced type 2 diabetes male Wistar albino rat model assessed as HDL level at 0.5 mg/kg, po measured after 4 weeks (reference value: 25.54 +/- 2.62 mg/dL); format: functional
[30] = test system: Rattus norvegicus; assay: Antihyperlipidemic effect in STZ-induced type 2 diabetes male Wistar albino rat model assessed as LDL level at 0.5 mg/kg, po measured after 4 weeks (reference value: 184.65 +/- 4.57 mg/dL); format: functional
[31] = test system: Rattus norvegicus; assay: Antihyperlipidemic effect in STZ-induced type 2 diabetes male Wistar albino rat model assessed as triglyceride level at 0.5 mg/kg, po measured after 4 weeks (reference value: 190.23 +/- 4.37 mg/dL); format: functional
[32] = biological target: Dipeptidyl peptidase 8 (Homo sapiens, UniProt Q6V1X1); assay: Inhibition of DPP8 (unknown origin) assessed as hydrolysis rate using Gly-pro-p-nitroanilide as substrate measured after 20 mins incubation by […] assay
Chain of Dipeptidyl peptidase 8 (Q6V1X1 whole entry): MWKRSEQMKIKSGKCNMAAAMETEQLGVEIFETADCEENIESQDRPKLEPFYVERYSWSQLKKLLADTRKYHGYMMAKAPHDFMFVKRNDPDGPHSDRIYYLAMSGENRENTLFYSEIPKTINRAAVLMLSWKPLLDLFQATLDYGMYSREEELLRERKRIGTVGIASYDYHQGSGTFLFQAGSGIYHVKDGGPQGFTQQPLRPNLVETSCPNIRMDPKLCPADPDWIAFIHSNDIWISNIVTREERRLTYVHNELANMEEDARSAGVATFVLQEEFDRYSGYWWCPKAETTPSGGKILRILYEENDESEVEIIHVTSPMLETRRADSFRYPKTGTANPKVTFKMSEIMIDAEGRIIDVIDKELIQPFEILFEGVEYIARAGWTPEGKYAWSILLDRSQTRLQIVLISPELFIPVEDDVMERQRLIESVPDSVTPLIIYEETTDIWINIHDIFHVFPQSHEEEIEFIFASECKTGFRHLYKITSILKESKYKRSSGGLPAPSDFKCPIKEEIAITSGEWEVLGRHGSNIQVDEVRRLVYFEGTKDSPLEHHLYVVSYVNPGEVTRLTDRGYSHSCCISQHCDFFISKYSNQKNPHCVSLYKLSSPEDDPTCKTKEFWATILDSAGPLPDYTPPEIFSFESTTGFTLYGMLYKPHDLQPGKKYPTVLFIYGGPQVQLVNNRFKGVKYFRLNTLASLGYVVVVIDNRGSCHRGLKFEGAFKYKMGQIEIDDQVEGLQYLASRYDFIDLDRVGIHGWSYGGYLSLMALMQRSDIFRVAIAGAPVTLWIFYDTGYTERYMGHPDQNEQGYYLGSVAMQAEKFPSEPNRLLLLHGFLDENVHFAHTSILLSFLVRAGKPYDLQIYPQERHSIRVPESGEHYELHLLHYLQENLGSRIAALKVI

[33] = biological target: Dipeptidyl peptidase 9 (Homo sapiens, UniProt Q86TI2); assay: Inhibition of DPP9 (unknown origin) assessed as hydrolysis rate using Gly-pro-p-nitroanilide as substrate measured after 20 mins incubation by […] assay
Chain of Dipeptidyl peptidase 9 (Q86TI2 whole entry): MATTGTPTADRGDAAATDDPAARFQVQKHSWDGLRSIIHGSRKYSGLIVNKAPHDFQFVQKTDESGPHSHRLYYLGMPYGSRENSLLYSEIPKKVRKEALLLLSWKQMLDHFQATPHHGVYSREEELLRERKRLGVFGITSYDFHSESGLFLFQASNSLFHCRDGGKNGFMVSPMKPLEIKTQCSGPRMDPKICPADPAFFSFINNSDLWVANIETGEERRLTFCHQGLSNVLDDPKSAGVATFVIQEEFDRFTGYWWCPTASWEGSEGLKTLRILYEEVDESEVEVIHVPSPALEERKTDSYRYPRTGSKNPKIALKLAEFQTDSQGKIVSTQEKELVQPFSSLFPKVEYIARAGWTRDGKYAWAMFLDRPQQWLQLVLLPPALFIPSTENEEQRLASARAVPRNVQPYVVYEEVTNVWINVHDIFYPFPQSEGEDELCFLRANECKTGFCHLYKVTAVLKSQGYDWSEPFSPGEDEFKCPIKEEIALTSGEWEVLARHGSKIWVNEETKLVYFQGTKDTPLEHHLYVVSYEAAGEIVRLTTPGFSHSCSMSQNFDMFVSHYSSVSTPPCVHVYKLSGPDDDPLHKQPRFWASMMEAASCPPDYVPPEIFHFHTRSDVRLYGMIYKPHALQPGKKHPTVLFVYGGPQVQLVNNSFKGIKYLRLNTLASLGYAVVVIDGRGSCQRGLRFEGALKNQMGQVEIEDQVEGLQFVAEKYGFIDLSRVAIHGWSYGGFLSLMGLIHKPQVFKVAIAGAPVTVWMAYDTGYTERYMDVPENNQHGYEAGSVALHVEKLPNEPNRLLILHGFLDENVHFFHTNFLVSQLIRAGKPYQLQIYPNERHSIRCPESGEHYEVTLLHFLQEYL

[34] = Acute toxicity in Balb/C mouse assessed as changes in general appearance at 1250 to 2000 mg/kg, po; format: organism-based; conditions: in vivo, dose 1250-2000 mg/kg
[35] = Acute toxicity in Balb/C mouse assessed as morphological changes in skin at 1250 to 2000 mg/kg, po; format: organism-based; conditions: in vivo, dose 1250-2000 mg/kg
[36] = Acute toxicity in Balb/C mouse assessed as morphological changes in fur at 1250 to 2000 mg/kg, po; format: organism-based; conditions: in vivo, dose 1250-2000 mg/kg
[37] = Acute toxicity in Balb/C mouse assessed as morphological changes in nose at 1250 to 2000 mg/kg, po; format: organism-based; conditions: in vivo, dose 1250-2000 mg/kg
[38] = Acute toxicity in Balb/C mouse assessed as morphological changes in eyes at 1250 to 2000 mg/kg, po; format: organism-based; conditions: in vivo, dose 1250-2000 mg/kg
[39] = Acute toxicity in Balb/C mouse assessed as morphological changes in convulsions at 1250 to 2000 mg/kg, po; format: organism-based; conditions: in vivo, dose 1250-2000 mg/kg
[40] = Acute toxicity in Balb/C mouse assessed as morphological changes in tremors at 1250 to 2000 mg/kg, po; format: organism-based; conditions: in vivo, dose 1250-2000 mg/kg
[41] = Acute toxicity in Balb/C mouse assessed as morphological changes in diarrhea at 1250 to 2000 mg/kg, po; format: organism-based; conditions: in vivo, dose 1250-2000 mg/kg
[42] = Acute toxicity in Balb/C mouse assessed as morphological changes in salvation at 1250 to 2000 mg/kg, po; format: organism-based; conditions: in vivo, dose 1250-2000 mg/kg
[43] = Acute toxicity in Balb/C mouse assessed as morphological changes in unusual behavior at 1250 to 2000 mg/kg, po; format: organism-based; conditions: in vivo, dose 1250-2000 mg/kg
[44] = species on record: Rattus norvegicus; assay: Anti-diabetic activity in STZ-induced type 2 diabetes male Wistar albino rat model assessed as fasting blood glucose level measured on day 1; format: functional
[45] = species on record: Rattus norvegicus; assay: Anti-diabetic activity in STZ-induced type 2 diabetes male Wistar albino rat model assessed as fasting blood glucose level measured on day 28; format: functional

Chain of Dipeptidyl peptidase 4 (P27487 whole entry): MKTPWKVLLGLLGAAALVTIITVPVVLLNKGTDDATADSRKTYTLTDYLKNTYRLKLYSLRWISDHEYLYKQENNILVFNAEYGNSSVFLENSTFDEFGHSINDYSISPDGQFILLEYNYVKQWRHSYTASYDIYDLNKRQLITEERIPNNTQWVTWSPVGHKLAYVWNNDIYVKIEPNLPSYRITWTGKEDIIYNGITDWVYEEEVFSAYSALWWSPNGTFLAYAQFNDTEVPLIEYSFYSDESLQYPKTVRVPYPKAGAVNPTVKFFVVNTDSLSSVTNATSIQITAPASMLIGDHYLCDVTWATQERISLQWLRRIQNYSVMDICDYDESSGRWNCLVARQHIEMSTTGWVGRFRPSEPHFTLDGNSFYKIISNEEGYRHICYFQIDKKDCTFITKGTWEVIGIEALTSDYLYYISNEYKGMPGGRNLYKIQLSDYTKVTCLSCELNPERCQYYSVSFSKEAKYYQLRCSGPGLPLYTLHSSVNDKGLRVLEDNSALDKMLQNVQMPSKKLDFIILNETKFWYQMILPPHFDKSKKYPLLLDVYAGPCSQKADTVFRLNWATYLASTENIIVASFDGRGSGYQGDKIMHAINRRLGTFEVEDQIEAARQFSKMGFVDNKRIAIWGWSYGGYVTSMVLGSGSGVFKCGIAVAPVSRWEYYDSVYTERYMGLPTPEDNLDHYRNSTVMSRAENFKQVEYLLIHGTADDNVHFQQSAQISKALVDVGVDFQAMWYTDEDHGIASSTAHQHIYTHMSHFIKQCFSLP

Compound	IC50 [1] [nM]	Activity [2] [mg/dL]	Activity [3] [mg/dL]	Activity [4] [mg/dL]	Activity [5] [mg/dL]	Activity [6] [mg/dL]	Activity [7] [mg/dL]	Activity [8] [mg/dL]	Activity [9] [mg/dL]	Activity [10] [mg/dL]	Activity [11] [mg/dL]	Activity [12] [mg/dL]	Activity [13] [mg/dL]	Activity [14] [mg/dL]	Activity [15] [mg/dL]	Activity [16] [mg/dL]	Activity [17] [mg/dL]	Activity [18] [mg/dL]	Activity [19] [mg/dL]	Activity [20]	also measured
CC1=C(C(=O)O)C(c2ccc(F)c(F)c2)N=C(N)N1C(=O)CN1CCn2c(nnc2C(F)(F)F)C1 (stereo not given)	116	117.53	113.74	134.23	126.68	114.05	112.43	110.82	107.18	103.12	101.26	148.1	48.67	121.78	141.45	134.27	59.54	105.65	113.65	Active	Activity [21]: Active; Activity [22]: Active; Activity [23]: Active; Activity [24]: Active; Activity [25]: Active; Activity [26]: Active; Activity [27]: Active
COc1ccc(Cl)cc1C(=O)NCCc1ccc(S(=O)(=O)NC(=O)NC2CCCCC2)cc1 [GLYBURIDE]																					Activity [28]: 123.65 mg/dL; Activity [29]: 66.6 mg/dL; Activity [30]: 97.55 mg/dL; Activity [31]: 106.87 mg/dL
CC1=C(C(=O)O)C(c2ccc(F)c(F)c2)N=C(N)N1C(=O)CN1Cc2cn(S(C)(=O)=O)nc2C1 (stereo not given)	2	119.65	121.54	110.22	108.68	116.78	114.26	116.56	109.75	103.52	100.83	152.34	45.9	131.65	146.34	138.76	53.56	114.67	117.23	Active	IC50 [32]: 3320 nM; IC50 [33]: 2840 nM; Activity [34]: Non-Toxic; Activity [35]: Non-Toxic; Activity [36]: Non-Toxic; Activity [37]: Non-Toxic; Activity [38]: Non-Toxic; Activity [39]: Non-Toxic; Activity [40]: Non-Toxic; Activity [41]: Non-Toxic; Activity [42]: Non-Toxic; Activity [43]: Non-Toxic; Activity [44]: 291 mg/dL; Activity [45]: 141 mg/dL; Activity [21]: Active; Activity [22]: Active; Activity [24]: Active; Activity [25]: Active; Activity [26]: Active
